From patent US10745377B2, “Piperidine or piperazine linked imidazole and triazole derivatives and methods of use” (MERCK SHARP & DOHME CORP., priority 2013, dated 2020) come the findings set out here.

Holding throughout (format): biochemical
For assay [1], the target named is T1, CYP2D6 (Homo sapiens, UniProt P10635).
T1 construct: 0.1 mg/mL protein human liver microsomes (BD Gentest); tissue BD Gentest; host or cells: human liver microsomes
Description: Cocktail assay for CYPs in human liver microsomes: CYP2D6 (dextromethorphan O-demethylation). The note with it: human liver microsomes 0.1 mg/mL, 5 μM dextromethorphan, 10 min at 37° C., 6 concentrations up to 10 μM; read-out: IC50 (nM) CYP2D6. On the technique in general: Microsomes from liver hold many membrane-bound enzymes, among them those of drug oxidation.
Description: (§1) Determination of IC50 in a Cocktail Assay for CYPs 1A2, 2C9, 2C19, 2D6 and 3A4
(§2) This assay was performed in a standard 96-well plate design. […] The incubation substrate mix contains 10 μM phenacetin (1A2), 5 μM diclofenac (2C9), 30 μM mephenytoin (2C19), 5 μM dextromethorphan (2D6) and 2 μM midazolam (3A4), 0.1 mg/mL protein human liver microsomes (BD Gentest), 1 mM NAPDH, 3.3 mM MgCl2 and 100 mM potassium phosphate buffer (pH 7.4). The production of the metabolite of each probe substrate was determined after incubation for 10 min at 37° C. Quantitation of the metabolite peak area ratio against an internal standard (tolbutamide) was determined by LC/MS/MS analysis following acetonitrile treatment of the incubations.
(§3) Samples were analyzed in the MRM mode with a SCIEX API-4000 mass spectrometer (Applied Biosystems, Foster City, Calif.), with a Shimadzu LC-20 AD pump (Shimadzu corporation, Kyoto, JP) and a CTC PAL autosampler (Agilent Technologies, Switzerland). A Phenomenex, Luna, 5 μm, 100 A, 2.00×30 mm HPLC column was used for the separation. The mobile phases were: (A) 0.1% formic acid in water and (B) 0.1% formic acid in acetonitrile. The binary gradient was as follows.
(§4) The mass spectrum parameters were as follows:
(§5) The LC/MS/MS parameters for the analytes were as follows.
(§6) The peak area ratio of the analyte to the internal standard was used to quantify the metabolite. The values of peak area ratios in the presence of test compound were compared to those of maximum or minimum controls and were expressed as % inhibition by interpolating between the maximum and minimum peak area ratios. Incubations with no inhibitor were defined as the maxima.
(§7) The following equation was used to calculate the % inhibition: [1−[(X−Low control)/(High control−Low control)]]*100
(§8) For the IC50 calculation, SigmaPlot was used to plot the mean % inhibition versus the test compound concentrations and for non-linear regression analysis of the data. Depending on the range of data points defining the inhibition curve, the data may have been fit to the 4-parameter logistic equation.

The target of assay [2] is T2, CYP1A2 (Homo sapiens, UniProt P05177).
T2 construct: 0.1 mg/mL protein human liver microsomes (BD Gentest); tissue BD Gentest; host or cells: human liver microsomes
T2 sequence (P05177 1-516): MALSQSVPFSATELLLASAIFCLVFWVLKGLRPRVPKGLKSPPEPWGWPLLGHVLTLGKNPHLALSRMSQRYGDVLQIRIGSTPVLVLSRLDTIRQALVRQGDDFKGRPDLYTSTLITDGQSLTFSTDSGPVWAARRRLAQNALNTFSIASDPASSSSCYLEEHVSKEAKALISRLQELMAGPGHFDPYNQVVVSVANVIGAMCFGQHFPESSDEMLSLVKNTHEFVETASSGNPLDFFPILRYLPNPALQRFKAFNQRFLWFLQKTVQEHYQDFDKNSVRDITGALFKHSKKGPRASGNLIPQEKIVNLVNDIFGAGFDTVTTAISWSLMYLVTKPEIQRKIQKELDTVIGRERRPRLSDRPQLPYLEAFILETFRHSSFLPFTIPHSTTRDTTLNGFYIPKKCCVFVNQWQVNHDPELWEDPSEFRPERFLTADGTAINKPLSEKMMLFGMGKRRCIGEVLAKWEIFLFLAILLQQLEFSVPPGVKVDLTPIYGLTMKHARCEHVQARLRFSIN
Description: Cocktail assay for CYPs in human liver microsomes: CYP1A2 (phenacetin O-deethylation). Conditions: human liver microsomes 0.1 mg/mL, 10 μM phenacetin, 10 min at 37° C., 6 concentrations up to 10 μM; read-out: IC50 (nM) CYP1A2.

In assay [3] the target is T3, CYP2C19 (Homo sapiens, UniProt P33261).
T3 construct: 0.1 mg/mL protein human liver microsomes (BD Gentest); tissue BD Gentest; host or cells: human liver microsomes
T3 sequence (P33261 whole entry): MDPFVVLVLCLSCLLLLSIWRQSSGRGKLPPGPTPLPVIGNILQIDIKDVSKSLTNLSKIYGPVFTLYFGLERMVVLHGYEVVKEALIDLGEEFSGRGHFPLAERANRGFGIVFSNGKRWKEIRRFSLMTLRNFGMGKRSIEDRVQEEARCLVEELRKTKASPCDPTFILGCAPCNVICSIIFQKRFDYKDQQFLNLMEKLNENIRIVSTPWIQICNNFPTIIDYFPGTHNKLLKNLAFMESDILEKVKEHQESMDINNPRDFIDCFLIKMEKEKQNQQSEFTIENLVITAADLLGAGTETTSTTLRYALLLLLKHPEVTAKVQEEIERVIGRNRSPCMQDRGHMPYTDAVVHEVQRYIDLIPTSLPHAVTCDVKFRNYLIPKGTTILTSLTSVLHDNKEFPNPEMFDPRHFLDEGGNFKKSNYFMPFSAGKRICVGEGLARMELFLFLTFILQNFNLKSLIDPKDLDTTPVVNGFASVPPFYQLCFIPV
Description: Cocktail assay for CYPs in human liver microsomes: CYP2C19 (mephenytoin 4′-hydroxylation). Conditions: human liver microsomes 0.1 mg/mL, 30 μM mephenytoin, 10 min at 37° C., 6 concentrations up to 10 μM; read-out: IC50 (nM) CYP2C19.

Assay [4] addresses T4, CYP3A4 (Homo sapiens, UniProt P08684).
T4 construct: 0.1 mg/mL protein human liver microsomes (BD Gentest); tissue BD Gentest; host or cells: human liver microsomes
In words: Cocktail assay for CYPs in human liver microsomes: CYP3A4 (midazolam 1′-hydroxylation). The note with it: human liver microsomes 0.1 mg/mL, 2 μM midazolam, 10 min at 37° C., 6 concentrations up to 10 μM; read-out: IC50 (nM) CYP3A4.

Assay [5] addresses T5, CYP2C9 (Homo sapiens, UniProt P11712).
T5 construct: 0.1 mg/mL protein human liver microsomes (BD Gentest); tissue BD Gentest; host or cells: human liver microsomes
Description: Cocktail assay for CYPs in human liver microsomes: CYP2C9 (diclofenac 4′-hydroxylation). Conditions: human liver microsomes 0.1 mg/mL, 5 μM diclofenac, 10 min at 37° C., 6 concentrations up to 10 μM; read-out: IC50 (nM) CYP2C9.
Description: as §1, §2, §3, §4, §5, §6, §7, §8

T1 sequence (P10635 whole entry): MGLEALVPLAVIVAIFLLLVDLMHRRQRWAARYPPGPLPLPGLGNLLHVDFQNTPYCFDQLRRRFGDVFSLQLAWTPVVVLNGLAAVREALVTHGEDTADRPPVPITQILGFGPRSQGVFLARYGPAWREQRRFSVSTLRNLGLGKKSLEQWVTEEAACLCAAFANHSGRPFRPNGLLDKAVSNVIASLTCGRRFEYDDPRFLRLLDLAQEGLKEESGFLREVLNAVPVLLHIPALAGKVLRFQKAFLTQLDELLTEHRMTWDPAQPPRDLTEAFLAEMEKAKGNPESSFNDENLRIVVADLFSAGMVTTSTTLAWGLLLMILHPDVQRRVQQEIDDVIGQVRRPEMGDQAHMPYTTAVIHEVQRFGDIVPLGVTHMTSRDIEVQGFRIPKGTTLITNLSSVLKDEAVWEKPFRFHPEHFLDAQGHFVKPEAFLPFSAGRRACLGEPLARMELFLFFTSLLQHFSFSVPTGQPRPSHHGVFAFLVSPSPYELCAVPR
T5 sequence (P11712 whole entry): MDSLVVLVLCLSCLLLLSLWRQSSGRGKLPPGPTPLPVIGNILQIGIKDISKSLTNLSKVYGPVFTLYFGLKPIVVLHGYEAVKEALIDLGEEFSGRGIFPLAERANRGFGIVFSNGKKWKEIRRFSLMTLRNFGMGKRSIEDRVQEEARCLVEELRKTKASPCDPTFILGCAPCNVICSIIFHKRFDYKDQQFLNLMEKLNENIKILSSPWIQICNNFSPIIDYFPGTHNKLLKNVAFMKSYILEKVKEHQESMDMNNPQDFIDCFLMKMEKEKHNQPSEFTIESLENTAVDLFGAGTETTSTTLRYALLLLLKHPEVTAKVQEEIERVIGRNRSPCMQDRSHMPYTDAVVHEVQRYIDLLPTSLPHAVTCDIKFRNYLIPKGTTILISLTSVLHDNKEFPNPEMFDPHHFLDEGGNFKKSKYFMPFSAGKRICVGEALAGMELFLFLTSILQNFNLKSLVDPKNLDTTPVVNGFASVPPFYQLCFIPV
T4 sequence (P08684 whole entry): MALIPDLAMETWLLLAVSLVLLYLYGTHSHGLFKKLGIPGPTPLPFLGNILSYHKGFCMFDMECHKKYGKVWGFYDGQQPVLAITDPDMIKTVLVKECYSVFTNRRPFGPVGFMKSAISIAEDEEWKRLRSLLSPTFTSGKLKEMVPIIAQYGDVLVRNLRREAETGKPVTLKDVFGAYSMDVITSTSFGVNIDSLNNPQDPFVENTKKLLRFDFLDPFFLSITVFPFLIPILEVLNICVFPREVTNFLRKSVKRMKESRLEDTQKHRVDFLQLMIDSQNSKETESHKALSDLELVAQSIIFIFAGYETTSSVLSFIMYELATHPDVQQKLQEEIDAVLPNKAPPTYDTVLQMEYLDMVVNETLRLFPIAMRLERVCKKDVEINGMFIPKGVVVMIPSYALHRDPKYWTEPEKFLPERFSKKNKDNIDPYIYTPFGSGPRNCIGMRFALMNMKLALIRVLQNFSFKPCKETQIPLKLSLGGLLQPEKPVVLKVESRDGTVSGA

Turning to `CC(C1CCOCC1)n1cncc1CN1CCN(c2nc3ccccc3o2)CC1` (centres unmarked) [Compound 32, 2-(4-((1-(1-(tetra-hydro-2H-pyran-4-yl)ethyl)-1H-imidazol-5-yl)methyl)piperazin-1-yl)benzo[d] oxazole], the IC50 (commonly the concentration at which inhibition is half-maximal) in assay [1] was more than 10000 nM; in assay [2], more than 10000 nM; in assay [3], more than 10000 nM; in assay [4], 24 nM; in assay [5], more than 10000 nM.

Take `c1ccc(CCn2cncc2CN2CCN(c3nc4ccccc4o3)CC2)nc1` [Compound 33, 2-(4-((1-(2-(pyridin-2-yl)ethyl)-1H-imidazol-5-yl)methyl)piperazin-1-yl)benzo[d] oxazole]: the IC50 in assay [1] was 2090 nM; in assay [2], more than 10000 nM; in assay [3], not below 10000 nM; in assay [4], 35 nM; in assay [5] it was 6520 nM.

As to `CC(c1ccc(S(C)(=O)=O)cc1)n1cncc1CN1CCN(c2nc3ccccc3o2)CC1` (centres unmarked) [Compound 34, 2-(4-((1-(1-(4-(methylsulfonyl)phenyl)ethyl)-1H-imidazol-5-yl)methyl)piperazin-1-yl)benzo [d]oxazole], the half-maximal inhibitory concentration (IC50) in assay [1] was 2520 nM; in assay [2] it was more than 10000 nM; in assay [3], not below 10000 nM; in assay [4], 8 nM; in assay [5] it was not below 10000 nM.

In the case of `CC(C1CCOCC1)n1cncc1CN1CCN(c2nc3ccc(F)c(F)c3o2)CC1` (centres unmarked) [Compound 35, 6,7-difluoro-2-(4-((1-(1-(tetrahydro-2H-pyran-4-yl)ethyl)-1H-imidazol-5-yl)methyl)piperazin-1-yl) benzo[d]oxazole], the IC50 was more than 10000 nM in assay [1]; more than 10000 nM in assay [2]; more than 10000 nM in assay [3]; 4 nM in assay [4]; more than 10000 nM in assay [5].

Turning to `CC(Cn1cncc1CN1CCN(c2nc3ccccc3o2)CC1)C(F)(F)F` (centres unmarked) [Compound 36, 2-(4-((1-(3,3,3-trifluoro-2-methylpropyl)-1H-imidazol-5-yl)methyl)piperazin-1-yl)benzo[d]oxazole], the IC50 in assay [1] is 1720 nM; in assay [2] it was more than 10000 nM; in assay [3] it was 4260 nM; in assay [4], 45 nM; in assay [5], 6980 nM.

As for `Fc1ccc(CCn2cncc2CN2CCN(c3nc4ccccc4o3)CC2)cc1` [Compound 37, 2-(4-((1-(4-fluorophenethyl)-1H-imidazol-5-yl)methyl)piperazin-1-yl)benzo[d]oxazole], the 50% inhibitory concentration (IC50) in assay [1] is 1410 nM; in assay [2] it was more than 10000 nM; in assay [3], 5380 nM; in assay [4], 8 nM; in assay [5] it was 4360 nM.

Take `COc1ccc2nc(N3CCN(Cc4cncn4[C@H](C)c4ccc(C#N)cc4)CC3)sc2c1` [Compound 38, (R)-4-(1-(5-((4-(6-methoxybenzo[d]thiazol-2-yl)piperazin-1-yl)methyl)-1H-imidazol-1-yl)ethyl)benzonitrile]: the IC50 is 3690 nM in assay [1]; more than 10000 nM in assay [2]; 4720 nM in assay [3]; 31 nM in assay [4]; 6470 nM in assay [5].

`C[C@H](c1ccc(C#N)cc1)n1cncc1CN1CCN(c2nc3ccccc3[nH]2)CC1` [Compound 39, (R)-4-(1-(5-((4-(1H-benzo[d]imidazol-2-yl)piperazin-1-yl)methyl)-1H-imidazol-1-yl)ethyl)benzonitrile]: the IC50 is 1580 nM in assay [1]; more than 10000 nM in assay [2]; more than 10000 nM in assay [3]; 23 nM in assay [4]; more than 10000 nM in assay [5].

Consider `CCS(=O)(=O)c1cnc(N2CCN(Cc3cncn3[C@H](C)Cc3ccc(F)cc3)CC2)s1` [Compound 40, (R)-5-(ethylsulfonyl)-2-(4-((1-(1-(4-fluorophenyl)propan-2-yl)-1H-imidazol-5-yl)methyl)piperazin-1-yl)thiazole], for which the IC50 in assay [1] was 5260 nM; in assay [2] it was more than 10000 nM; in assay [3] it was more than 10000 nM; in assay [4] it was 27 nM; in assay [5], more than 10000 nM.

Consider `CCS(=O)(=O)CCc1cnc(N2CCN(Cc3cncn3[C@H](C)Cc3ccc(F)cc3)CC2)s1` [Compound 41, (R)-5-(2-(ethylsulfonyl)ethyl)-2-(4-((1-(1-(4-fluorophenyl)propan-2-yl)-1H-imidazol-5-yl)methyl)piperazin-1-yl)thiazole], for which the IC50 in assay [1] is 2380 nM; in assay [2] it was more than 10000 nM; in assay [3], 2230 nM; in assay [4] it was 30 nM; in assay [5], 2700 nM.

Regarding `CCS(=O)(=O)CCc1cnc(N2CCN(Cc3cncn3[C@H](C)c3ccc(Cl)cc3)CC2)s1` [Compound 42, (R)-2-(4-((1-(1-(4-chloro-phenyl)ethyl)-1H-imidazol-5-yl)methyl)piperazin-1-yl)-5-(2-(ethyl-sulfonyl)ethyl)thiazole], the IC50 in assay [1] was 1660 nM; in assay [2], more than 10000 nM; in assay [3], 2400 nM; in assay [4], 22 nM; in assay [5] it was more than 10000 nM.

As for `CCS(=O)(=O)CCc1cnc(N2CCN(Cc3cncn3[C@H](C)c3ccc(F)cc3)CC2)s1` [Compound 43, (R)-2-(4-((1-(1-(4-fluoro-phenyl)ethyl)-1H-imidazol-5-yl)methyl)piperazin-1-yl)-5-(2-(ethyl-sulfonyl)ethyl) thiazole], the IC50 is 2950 nM in assay [1]; more than 10000 nM in assay [2]; 4010 nM in assay [3]; 50 nM in assay [4]; more than 10000 nM in assay [5].

In the case of `C[C@H](c1ccc(C#N)cc1)n1cncc1CN1CCN(c2ccccc2)C(C(=O)NC(C)(C)C)C1` (stereo partly drawn) [Compound 44, N-(tert-butyl)-4-((1-((R)-1-(4-cyanophenyl)ethyl)-1H-imidazol-5-yl)methyl)-1-phenylpiperazine-2-carboxamide], the IC50 in assay [1] was more than 10000 nM; in assay [2] it was more than 10000 nM; in assay [3] it was 5840 nM; in assay [4] it was 29 nM; in assay [5] it was 5090 nM.

`C[C@H](c1ccc(C#N)cc1)n1cncc1CN1CCN(c2ccccc2)C(C(=O)N2CCOCC2)C1` (stereo partly drawn) [Compound 46, 4-((1R)-1-(5-((3-(morpholine-4-carbonyl)-4-phenylpiperazin-1-yl)methyl)-1H-imidazol-1-yl)ethyl) benzonitrile]: the IC50 was more than 10000 nM in assay [1]; more than 10000 nM in assay [2]; more than 10000 nM in assay [3]; 46 nM in assay [4]; more than 10000 nM in assay [5].

In the case of `C[C@H](c1ccc(C#N)cc1)n1cncc1CN1CCN(c2ccccc2)C(C(=O)N2CCC(F)(F)CC2)C1` (stereo partly drawn) [Compound 47, 4-((1R)-1-(5-((3-(4,4-difluoropiperidine-1-carbonyl)-4-phenylpiperazin-1-yl)methyl)-1H-imidazol-1-yl)ethyl) benzonitrile], the IC50 was more than 10000 nM in assay [1]; more than 10000 nM in assay [2]; 7830 nM in assay [3]; 20 nM in assay [4]; 9270 nM in assay [5].

On to `C[C@H](c1ccc(F)cc1)n1cncc1CN1CCN(c2ccccc2)[C@H](C(=O)N2CCCCC2)C1` [Compound 48], for which the concentration for half-maximal inhibition (IC50) in assay [1] is 4890 nM; in assay [2], more than 10000 nM; in assay [3], 2000 nM; in assay [4], 31 nM; in assay [5] it was 1470 nM.

Consider `Cc1cc(C(=O)N2CCN(Cc3cncn3[C@H](C)c3ccc(F)cc3)CC2c2ccccc2)no1` (stereo partly drawn) [Compound 49, (4-((1-((R)-1-(4-fluorophenyl)ethyl)-1H-imidazol-5-yl)methyl)-2-phenylpiperazin-1-yl)(5-methylisoxazol-3-yl)methanone], for which the 50% inhibitory concentration (IC50) is more than 10000 nM in assay [1]; more than 10000 nM in assay [2]; 2110 nM in assay [3]; 14 nM in assay [4]; 1810 nM in assay [5].

Turning to `CC(=O)N1CCN(Cc2cncn2[C@H](C)c2ccc(F)cc2)CC1c1ccccc1` (stereo partly drawn) [Compound 51, 1-(4-((1-((R)-1-(4-fluorophenyl)ethyl)-1H-imidazol-5-yl)methyl)-2-phenylpiperazin-1-yl)ethanone], the half-inhibitory concentration (IC50) in assay [1] was more than 10000 nM; in assay [2], more than 10000 nM; in assay [3] it was more than 10000 nM; in assay [4] it was 22 nM; in assay [5], more than 10000 nM.

On to `C[C@H](c1ccc(F)cc1)n1cncc1CN1CCN(C(=O)c2ccccn2)C(c2ccccc2)C1` (some centres unmarked) [Compound 53], for which the IC50 in assay [1] is 9840 nM; in assay [2], more than 10000 nM; in assay [3], more than 10000 nM; in assay [4], 13 nM; in assay [5] it was 6120 nM.
